This data set can be described thus: Polymorphic stability of nateglinide Form B after processing: absence of Form H by X-ray powder diffraction. It counts as physicochemical. To be noted: Cu Kα-1, after de-lumping and air jet milling, Form H detectable at about 2 percent by weight or more. The procedure: Stability of the nateglinide Form B after processing is determined by an absence of the polymorphic Form H of the compound. This is determined by generating X-ray powder diffraction patterns of samples and checking for the characteristic peaks that correspond to Form H. For the present application, the X-ray diffraction patterns of the figures were obtained with Cu Kα-1 radiation. Nateglinide Form H can be detected at concentrations at least about 2 percent by weight, and quantified at concentrations at least about 5 percent by weight.

Turning to `CC(C)[C@H]1CC[C@H](C(=O)NC(Cc2ccccc2)C(=O)O)CC1` (single isomer, unassigned; (-)) [nateglinide Form B, (−)-N-[(trans-4-isopropylcyclohexane)-carbonyl]-D-phenylalanine], the “presence of nateglinide Form H after particle size reduction (stability of Form B)” value is listed as “not detected”.

The values are drawn from patent US20080096970A1, “Stable Nateglinide Form B Compositions” (priority 2004, published 2008).
